Assays:
Type in all cases: cell-based, human
TBX18 = experiment: Quantification of TBX18+ cells from immunostaining; conditions: BMP4 2.5 ng/ml day 3-5
Experimental: Cells were fixed with 4% PFA for 10 min at 4° C. and permeabilized using 0.3% Triton X, 200 mM Glycerin for 20 min at RT. Samples were blocked for 30 min at room temperature in blocking buffer (BB): 10% donkey serum, 2% BSA, 0.1% Triton X. The following primary antibodies were incubated in BB over night at 4° C.: anti-cardiac isoform of cTNT (clone 13-11; 1:100, Thermo Fischer), rabbit anti-human MLC2v (1:100), rabbit anti-human SHOX2 (1:200), (Abcam), rabbit anti-human TBX3 (1:100), goat anti-human Tbx18 (1:50), (Santa Cruz). Respective secondary antibodies were incubated for 30 min at RT: donkey anti-mouse IgG A647 (1:400), donkey anti-rabbit IgG A467 (1:400), (Life Technologies), goat anti-mouse IgG Cy3 (1:400), donkey anti-rabbit IgG Cy3 (1:800), donkey anti-goat IgG Cy3 (1:800), (Jackson ImmunoResearch). DAPI was used to counterstain cell nuclei and slides were mounted using Fluorescent Mounting Medium (Dako). The Olympus FluoView 1000 Laser Scanning Confocal Microscope and the FV10-ASW software were used for imaging.
For the quantification of DAPI and TBX18 positive cell nuclei the IMAGE J software plugin ICTN was used. For each condition three random taken pictures (FIG. 3F) of three independent experiments were analyzed.

[1] = test system: SAN pacemaker marker, ventricular marker and cardiac ion channels; experiment: Q-PCR analysis of marker gene expression; conditions: BMP4 day 3-5, 2.5 ng/ml vs untreated control, day 4 to 12
Experimental: Total RNA was isolated using the RNAqueous-micro Kit (Ambion) followed by a DNase digestion step (Ambion). For RNA isolation from PFA-fixed cells the RecoverAll Kit (Ambion) was used. 500 ng to 1 μg of RNA was reverse transcribed into cDNA using random hexamers and Oligo(dT) primers with Superscript III Reverse Transcriptase (life technologies). QPCRs were performed on the EP RealPlex MasterCycler (Eppendorf) using the QuntiFast SYBR Green PCR Kit (Qiagen) according to the manufacturer's instructions. A 10-fold dilution series of human genomic DNA standards ranging from 25 ng/μl to […] was used to evaluate the efficiency of the PCR and calculate the copy number of each gene relative to the house keeping gene TBP as described previously^13. Human fetal heart tissue gestation stage 17 was purchased from Novogenix Laboratories. After dissecting ventricular, sinoatrial node and atrioventricular node tissue RNA was isolated using the Trizol method (Life Technologies) and treated with DNase (Ambion).

[2] = test system: HES3 NKX2-5:GFP reporter line; experiment: Flow cytometry of day 20 differentiation cultures for NKX2-5 and cTNT
Experimental: Human pluripotent stem cell lines (Hes3 NKX2-5:GFP)^10 H7 (HESC line approved by NIH registration number 0061^32 and MSC-IPS1^11 were cultured as described^12. For differentiation into the cardiac lineage the established protocol was used with the following modifications (FIG. 1A). 80% confluent hPSCs cultures were dissociated into single cells, suspended in StemPro-34 Media containing 1 ng/ml BMP4 and 10 μM ROCK inhibitor and incubated for 18 h on an orbital shaker to generate embryoid bodies (EBs). The next day (day 1 of differentiation) the EBs were transferred to mesoderm induction media: StemPro-34 containing 10 ng/ml BMP4, 6 ng/ml ActivinA, 5 ng/ml bFGF. At day 3 of differentiation the EBs were washed once using IMDM and suspended in cardiac induction media: StemPro-34 containing 0.5 μM IWP2, 10 ng/ml VEGF, and optionally 5.4 μM SB-431542 (SB, Activin/Nodal/TGFβ inhibitor). At day 5 of differentiation EBs were switched to basic media: Stempro containing 5 ng/ml VEGF. Media was supplemented with VEGF until day 12 of differentiation and changed every 4 days. All cytokines were purchased from R&D systems if not indicated otherwise. EBs were cultured under low oxygen conditions 5% CO2, 5% O2, 90% N2 until day 12 and at 5% CO2, normal air conditions for the rest of the culture period.
EBs were dissociated into single cells at the mesoderm stage (day 3 of differentiation) using TrypLE (Life Technologies) with the rational to ensure efficient cytokine supply to each cell. Cells were placed into 96 well low cluster plates at 80,000 cells/well with the indicated cytokines and 5 μM ROCK inhibitor for re-aggregation into EBs (FIG. 2A). At day 5 of differentiation EBs were transferred to 24 well low cluster plates and continued to be cultured in basic media as described above.
For efficient specification of SANLCM pacemaker, mesoderm was induced with the 3B/2A condition (3 ng/ml BMP4, 2 ng/ml ACTA) at day 1 of differentiation. At day 3 EBs were dissociated as described above and treated with 2.5 ng/ml BMP4 and 0.5 μM RA in addition to standard cardiac induction media.
For the generation of SANLCM cultures free of NKX2-5′ cardiomyocytes mesoderm was induced with the 3B/2A condition (3 ng/ml BMP4, 2 ng/ml ACTA) at day 1 of differentiation. For this protocol EBs were kept intact and treated at day 3 with 2.5 ng/ml BMP4, 0.5 μM RA and 960 nM FGF inhibitor (PD 173074, Tocris) at day 3 or day 4 in addition to standard cardiac induction media.
(§1) For the dissociation of day 3-day 12 EBs TrypLE was used. Day 12-30 EBs were incubated in HANKs buffer containing 1 mg/ml Collagenes type 2 (Worthington) with gentle shaking over night at room temperature, prior to TypLE dissociation. Cells were stained at a concentration of 5×10^6 cells/ml with anti-PDGFRα-PE (1:20) anti-KDR-APC (1:10), (R&D Systems), anti-SIRPA-PeCy (clone SE5A5, 1:1000, Biolegend), anti-CD90-APC (BD), anti-cardiac isoform of cTNT (clone 13-11; 1:2000, Thermo Fischer), rabbit anti-human NKX2-5 (1:800, Cell Signaling Technology), goat anti-mouse IgG APC (1:250, BD), goat anti-mouse IgG PE (1:200, Jackson ImmunoResearch), donkey anti-rabbit IgG A647 Life Technologies). For cell-surface markers staining was carried out in PBS containing 5% FCS. For intra-cellular staining cells were fixed for 10 min at 4° C. with 4% PFA and stained in PBS containing 5% FCS and 0.5% saponin (cTNT) or 0.3% TritonX (NKX2-5). Stained cells were analyzed using the LSR II Flow cytometer (BD). For cell sorting the cells were kept in IMDM containing 5% FCS and sorted at a concentration of 10^6 cell/ml using MoFlo (BD) and Influx (BD) sorter. For sorting of PFA-fixed cells for subsequent RNA isolation the staining buffers and PBS for cell collection were supplemented with 5 mM DTT and 100 U/ml RNaseOUT (Life Technologies). All buffer components were RNAse free and samples were strictly kept on ice and sorted within 3 h from PFA-fixation. Data were analyzed using FlowJo software (Tree Star).

[3] = test system: HES-2 embryonic stem cell line; experiment: Flow cytometry of day 20 HES2 cultures, intracellular NKX2-5 and cTNT staining
Experimental: For the generation of SANLCM cultures free of NKX2-5′ cardiomyocytes mesoderm was induced with the 3B/2A condition (3 ng/ml BMP4, 2 ng/ml ACTA) at day 1 of differentiation. […]
as §1, with “For sorting of PFA-fixed cells for subsequent RNA isolation the staining buffers and PBS for cell collection were supplemented with 5 mM DTT and 100 U/ml RNaseOUT (Life Technologies). All buffer components were RNAse free and samples were strictly kept on ice and sorted within 3 h from PFA-fixation.” left out, “Star). […]” for “Star).”

[4] = test system: pacemaker funny current (If); experiment: Patch clamp, pacemaker funny current density; conditions: 2 mM Cesium (Cs+) vs Tyrode's solution
Experimental: FIG. 9. A, Current-voltage relationship for pacemaker funny current density (If) in SANLCM and VLCM. Inset: voltage protocol, from a holding potential of −40 mV currents were elicited by 3 s voltage steps of −10 mV down to −120 mV. Current densities were measured by subtraction of the instantaneous current (t=0) from the current at the end of the 3 sec voltage step. B,C Original pacemaker funny current traces at different membrane potentials in Tyrode's solution (B) and blocked by the application of 2 mM Cesium (Cs^+) (C). Inset: voltage protocol, from a holding potential of −40 mV currents were elicited by 3 s voltage steps of −10 mV down to −120 mV. […] Current densities were measured as peak inward currents. […]
Action potentials and membrane currents were measured with standard current- and voltage-clamp techniques using axopatch amplifier. […] Spontaneous action potentials, funny current (If) and inward rectifier potassium currents ([…]) were recorded at 37° C. using the perforated patch method (nystatin)^14 with the following bath solution (mM): NaCl 124. […] Sodium currents (IN) were recorded at 25° C. using the whole cell ruptured patch method in calcium free bath solution containing low Na^+ to reduce current amplitude for better voltage control (mM): NaCl 30, TEA-Cl 115, CaCb20.01, MgCl2 1, and glucose 5, Hepes 10 (pH 7.4, adjusted with NaOH). […]

BMP4: Bone Morphogenetic Protein 4
number of TBX18+ cells at day 6 (TBX18): 38±2% | TBX18 expression [1]: significantly up-regulated | proportion of SANLCMs ([2]; BMP4 1.25-5 ng/ml day 3-5, mesoderm induced with 3B/2A): 35±1% | proportion of SANLCMs ([2]; BMP4 1.25-5 ng/ml day 3-5, mesoderm induced with 5B/4A): 21±1% | proportion of SANLCMs ([2]; BMP4 1.25-5 ng/ml day 3-5, mesoderm induced with 10B/6A): 15±2% | total cardiomyocytes ([2]; high levels of BMP4 (10-20 ng/ml) between day 3-5): significant reduction

CCN(CC)CCCCNc1ncc2cc(-c3cc(OC)cc(OC)c3)c(NC(=O)NC(C)(C)C)nc2n1 [PD 173074]
NKX2-5+ cardiomyocytes in day 20 cultures ([2]; BMP+RA plus FGF inhibitor 240-960 nM): 51% | NKX2-5-cTNT+ SANLCM in day 20 cultures ([2]; BMP+RA plus FGF inhibitor from day 4-6 (480 nM)): 48±3% | block in development of NKX2-5+ cardiomyocytes ([2]; FGF inhibitor applied from day 5 onwards): no effect | NKX2-5+ myocytes in day 20 cultures ([3]; 240 nM FGFi day 3-5, vs 43% at endogenous bFGF levels): 5% | NKX2-5-cTNT+ SANLCMs in day 20 cultures ([3]; BMP 2.5 ng/ml, RA 0.5 μM, 240 nM FGFi day 3-5): up to 36%

CC1=C(/C=C/C(C)=C/C=C/C(C)=C/C(=O)O)C(C)(C)CCC1 [RA, retinoic acid]
generation of total cardiomyocytes and SANLCM frequency ([2]; RA 500 nM added at later times (days 3 to 12)): no effect

bFGF: fibroblast growth factor FGF2
NKX2-5-cTNT+ SANLCM population in day 20 cultures ([2]; BMP+RA plus bFGF (20 ng/ml, day 4-6)): 12±1%

[Cs] [Cesium]
effect on pacemaker funny current traces [4]: blocked

Reference: patent US11730770B2, “Methods for making and using sinoatrial node-like pacemaker cardiomyocytes and ventricular-like cardiomyocytes” (UNIVERSITY HEALTH NETWORK, priority 2015, dated 2023)
